The NIST ThermoML archive (doi:10.1016/j.jct.2016.08.033)
± gives the expanded uncertainty stated by the source.

Experiments:
[1] = 303.15 K; 101.33 kPa; Liquid; Vibrating tube method
[2] = refractive index (Na D-line) (dimensionless); conditions: 303.15 K; 101.33 kPa; Liquid; Standard Abbe refractometry

Compound | mass density [1] | refractive index [2]
CCn1cc[n+](C)c1.O=S(=O)([N-]S(=O)(=O)C(F)(F)F)C(F)(F)F | 1513.74 ± 1.2 kg/m3 | 1.42162 ± 0.0011
CCCCCC[n+]1ccn(C)c1.O=S(=O)([N-]S(=O)(=O)C(F)(F)F)C(F)(F)F | 1367.17 ± 1.1 kg/m3 | 1.42851 ± 0.0011
CCCC(C)O (configuration not stated) [pentan-2-ol] | 800.09 ± 2.1 kg/m3 | 1.40216 ± 0.0021

The remaining lines, values ahead:

mass density [1] | refractive index [2] | Compound
888.65 ± 1 kg/m3 | 1.40494 ± 0.0011 | C=COC(=O)CCC [vinyl butanoate]
948.44 ± 1 kg/m3 | 1.39394 ± 0.0011 | CCCC(=O)O [butanoic acid]
849.19 ± 1 kg/m3 | 1.40283 ± 0.0011 | CCCC(=O)OC(C)CCC (configuration not stated) [1-methylbutyl butanoate]
